According to US20240368120A1 (Terns Pharmaceuticals, Inc., priority 2023, published 2024):

Target: T1, human GLP-1R receptor (Homo sapiens, UniProt P43220)
T1 construct: expressed in transfected cells
Assay: GLP-1R low expression cell assay (cAMP TR-FRET, CHO-K1_hGLP-1Rlow_clone10 cells)
Type: cell-based
Conditions: for EC50: cAMP TR-FRET, 30 min at 25° C.; for Emax: maximum activation relative to control GLP-1 peptide agonist
Procedure, shortened: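 Readout is cAMP TR-FRET after 30 min compound stimulation at 25 °C of a low-GLP-1R-expressing CHO-K1 clone (1,000 cells/well), with 10-point 3-fold serial dilutions. Percent activation versus a control GLP-1 peptide, from duplicates, was Hill-fitted to give EC50.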

T1 sequence (P43220 24-463): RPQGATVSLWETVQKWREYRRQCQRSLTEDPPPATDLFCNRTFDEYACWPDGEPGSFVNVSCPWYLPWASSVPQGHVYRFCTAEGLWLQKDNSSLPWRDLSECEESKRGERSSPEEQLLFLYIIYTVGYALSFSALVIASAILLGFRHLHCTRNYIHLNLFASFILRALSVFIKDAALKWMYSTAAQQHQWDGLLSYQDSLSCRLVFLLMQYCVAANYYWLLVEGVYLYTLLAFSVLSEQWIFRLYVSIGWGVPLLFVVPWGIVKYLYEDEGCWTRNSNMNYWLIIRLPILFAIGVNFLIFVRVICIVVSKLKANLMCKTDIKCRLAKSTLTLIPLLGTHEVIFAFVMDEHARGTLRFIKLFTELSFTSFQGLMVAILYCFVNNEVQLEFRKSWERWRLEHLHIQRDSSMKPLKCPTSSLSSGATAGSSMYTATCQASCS

| EC50 | Emax | SMILES |
| --- | --- | --- |
| 10 to 100 nM | > 85% | CCCOc1cc(C(=O)O)cc2c1nc(CN1CCC(c3cccc(OCc4ccc(C#N)cc4F)n3)CC1)n2C [Compound 319, 2-((4-(6-((4-Cyano-2-fluorobenzyl)oxy)pyridin-2-yl)piperidin-1-yl)methyl)-1-methyl-4-propoxy-1H-benzo[d]imidazole-6-carboxylic acid] |
| 10 to 100 nM | > 85% | CC(CO)Oc1cc(C(=O)O)cc2c1nc(CN1CCC(c3cccc(OCc4ccc(Cl)cc4F)n3)CC1)n2C (centres unmarked) [Compound 320, 2-((4-(6-((4-Chloro-2-fluorobenzyl)oxy)pyridin-2-yl)piperidin-1-yl)methyl)-4-((1-hydroxypropan-2-yl)oxy)-1-methyl-1H-benzo[d]imidazole-6-carboxylic acid] |
| 10 to 100 nM | > 85% | [2H]C([2H])(Oc1cccc(C2CCN(C([2H])([2H])c3nc4c(OC(F)F)cc(C(=O)O)cc4n3C)CC2)n1)c1ccc(Cl)cc1F [Compound 321, 2-((4-(6-((4-Chloro-2-fluorophenyl)methoxy-d2)pyridin-2-yl)piperidin-1-yl)methyl-d2)-4-(difluoromethoxy)-1-methyl-1H-benzo[d]imidazole-6-carboxylic acid] |
| 10 to 100 nM | > 85% | CCCOc1cc(C(=O)O)cc2c1nc(CN1CCC(c3cccc(OCc4ccc(Cl)cc4F)n3)CC1)n2C [Compound 322, 2-((4-(6-((4-chloro-2-fluorobenzyl)oxy)pyridin-2-yl)piperidin-1-yl)methyl)-1-methyl-4-propoxy-1H-benzo[d]imidazole-6-carboxylic acid] |
| 10 to 100 nM | > 85% | COc1cc(C(=O)O)nc2c1nc(CN1CCC(c3cccc(OCc4ccc(C#N)cc4F)n3)CC1)n2C [Compound 323, 2-((4-(6-((4-Cyano-2-fluorobenzyl)oxy)pyridin-2-yl)piperidin-1-yl)methyl)-7-methoxy-3-methyl-3H-imidazo[4,5-b] pyridine-5-carboxylic acid] |
| 10 to 100 nM | > 85% | COc1cc(C(=O)O)nc2c1nc(CN1CCC(c3cccc(OCc4ccc(Cl)cc4F)n3)CC1)n2C [Compound 324, 2-((4-(6-((4-Chloro-2-fluorobenzyl)oxy)pyridin-2-yl)piperidin-1-yl)methyl)-7-methoxy-3-methyl-3H-imidazo[4,5-b]pyridine-5-carboxylic acid] |
| > 1000 nM | < 25% | Cn1c(CN2CCC(c3cccc4c3OC[C@H](c3ccc(C#N)cc3F)O4)CC2)nc2c(OC(F)F)cc(C(=O)O)cc21 [Compound 326, (S)-2-((4-(2-(4-Cyano-2-fluorophenyl)-2,3-dihydrobenzo[b][1,4]dioxin-5-yl)piperidin-1-yl)methyl)-4-(difluoromethoxy)-1-methyl-1H-benzo[d]imidazole-6-carboxylic acid] |
| < 10 nM | > 85% | COc1cc(C(=O)O)cc2c1nc(CN1CCC(c3cccc(OCc4cc(F)c(C#N)cc4F)n3)CC1)n2C [Compound 327, 2-((4-(6-((4-Cyano-2,5-difluorobenzyl)oxy)pyridin-2-yl)piperidin-1-yl)methyl)-4-methoxy-1-methyl-1H-benzo[d]imidazole-6-carboxylic acid] |

| SMILES | EC50 | Emax |
| --- | --- | --- |
| CO[C@H]1C[C@@H](Oc2cc(C(=O)O)cc3c2nc(CN2CCC(c4cccc(OCc5ccc(C#N)cc5F)n4)CC2)n3C)C1 [Compound 318, 2-((4-(6-((4-Cyano-2-fluorobenzyl)oxy)pyridin-2-yl)piperidin-1-yl)methyl)-4-((1s,3s)-3-methoxycyclobutoxy)-1-methyl-1H-benzo[d]imidazole-6-carboxylic acid] | 100 to 1000 nM | > 85% |
| CO[C@H]1C[C@H](Oc2cc(C(=O)O)cc3c2nc(CN2CCC(c4cccc(OCc5ccc(Cl)cc5F)n4)CC2)n3C)C1 [Compound 325, 2-((4-(6-((4-Chloro-2-fluorobenzyl)oxy)pyridin-2-yl)piperidin-1-yl)methyl)-4-((1r,3r)-3-methoxycyclobutoxy)-1-methyl-1H-benzo[d]imidazole-6-carboxylic acid] | 100 to 1000 nM | > 85% |
